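Method: 48-hour compound exposure of cells in 96-well plates, five concentrations, linear interpolation of endpoints. GI50 is the concentration that inhibits growth by half. At the TGI there is no net growth.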
What was measured:
Assay in all cases: DTP human tumour cell line panel, 48 h
[1] = test system: DU-145 prostate
[2] = test system: HCT-116 colon
[3] = test system: MDA-MB-231 breast
[4] = test system: MDA-MB-435
[5] = test system: MOLT-4 leukemia
[6] = test system: OVCAR-5 ovarian
[7] = test system: OVCAR-8 ovarian
[8] = test system: U251 CNS
[9] = test system: UACC-62 melanoma
[10] = test system: SW-620 colon

Structure (SMILES) | TGI [1] [µM] | TGI [2] [µM] | TGI [3] [µM] | TGI [4] [µM] | TGI [5] [µM] | TGI [6] [µM] | TGI [7] [µM] | TGI [8] [µM] | TGI [9] [µM] | TGI [10] [µM] | GI50 [1] [µM] | GI50 [2] [µM] | GI50 [3] [µM] | GI50 [4] [µM] | GI50 [5] [µM] | GI50 [6] [µM] | GI50 [7] [µM] | GI50 [10] [µM] | GI50 [8] [µM] | GI50 [9] [µM]
COc1cc(C2S/C(=C/c3ccccc3)C(=O)N2Cc2ccccc2)cc(OC)c1OC (stereo unspecified) | > 100 | 47 | > 100 | > 100 | > 100 | > 100 | > 100 | > 100 | > 100 | – | – | – | – | – | – | – | – | – | – | –
O=c1c2c3c(sc2nc2n1N=CN(c1ccccc1)C2)CCCC3 | > 100 | > 100 | > 100 | > 100 | > 100 | > 100 | > 100 | > 100 | > 100 | > 100 | – | – | – | – | – | – | – | – | – | –
CNC(=O)N(CCC#N)CCN(C(=O)NC)c1ccccc1 | > 100 | > 100 | > 100 | > 100 | > 100 | > 100 | > 100 | > 100 | > 100 | > 100 | – | – | – | – | – | – | – | – | – | –
COC(=O)CN(CC(=O)NCCCBr)C1CCCCC1N(CC(=O)OC)CC(=O)OC (stereo unspecified) | > 100 | > 100 | > 100 | > 100 | > 100 | > 100 | > 100 | > 100 | > 100 | > 100 | – | – | – | – | – | – | – | – | – | –
COc1ccccc1NC(=S)N=Nc1c(O)[nH]c2ccccc12 | 13.7 | > 100 | > 100 | > 100 | > 100 | > 100 | > 100 | > 100 | > 100 | > 100 | – | – | – | – | – | – | – | – | – | –
CCOC(=O)/C=C(/C(=O)OCC)n1cc(C)c(=O)n(Cc2cnnn2COCCOC(C)=O)c1=O | > 52.8 | 28.4 | 36.1 | 38.2 | 18.8 | 36.9 | 29.1 | 57.1 | 30.5 | > 55.6 | – | – | – | – | – | – | – | – | – | –
Cc1ncc([N+](=O)[O-])n1CC[N+](C)([O-])CCCCn1ccnc1[N+](=O)[O-] (stereo unspecified) | > 100 | > 100 | > 100 | > 100 | > 100 | > 100 | > 100 | > 100 | > 100 | > 100 | – | – | – | – | – | – | – | – | – | –
Cc1nn(C(=O)c2ccccc2O)c2c1C(c1ccc(O)cc1O)SC(N)=N2 (stereo unspecified) | > 10 | > 10 | > 10 | > 10 | > 10 | 3.91 | > 10 | > 10 | 5.71 | > 10 | – | – | – | – | – | – | – | – | – | –
N[C@H]1c2c(Br)sc(Br)c2C(=O)[C@H]1O | 39.4 | 34.9 | 36.1 | 36.7 | > 22 | 60.7 | 43.7 | 29.7 | 23.7 | 25.8 | – | – | – | – | – | – | – | – | – | –
COc1ccc2c(c1)N(Cc1ccc(Cl)cc1)CCC2N1CCCC1=O (stereo unspecified) | > 100 | > 100 | 98.5 | 15 | 24.6 | > 100 | 57.3 | 59.6 | 14.9 | > 100 | 2.66 | 5.24 | 4.84 | 3.77 | 4.9 | 6.6 | 4.6 | 6.48 | 3.28 | 3.25
COC(=O)Nc1nc2ccc(S(=O)(=O)Nc3ccccn3)cc2[nH]1 | > 100 | > 100 | > 100 | 44.5 | 64 | > 100 | > 100 | > 100 | > 100 | 66.6 | – | – | – | – | – | – | – | – | – | –
O=C1/C(=C/c2ccc(O)cc2)CCCC1CN1CCCCC1 (stereo unspecified) | 16.6 | 3.22 | 4.43 | 21.3 | 4.82 | 30.8 | 13.6 | 22.3 | 3.46 | 3.8 | – | – | – | – | – | – | – | – | – | –
C[C@@]1(CCCCCCCCCCc2ccccc2)C[C@@]2(C)OC(=O)C[C@H]2OO1 | > 4.64 | 32.5 | 36.4 | 3.4 | 2.88 | 3.94 | 31.7 | 33.1 | 4.35 | 40.7 | – | – | – | – | – | – | – | – | – | –
Cc1c(C(=O)O)n2c(=S)[nH]nc2c2ccccc12 | > 100 | > 100 | > 100 | > 100 | > 100 | > 100 | > 100 | > 100 | > 100 | > 100 | – | – | – | – | – | – | – | – | – | –
CCC(=O)Nc1cccc(N=Cc2ccc(OC(=O)/C=C\c3ccccc3)cc2)c1 | > 75 | > 75 | > 75 | > 75 | > 75 | > 75 | > 75 | – | > 75 | > 75 | – | – | – | – | – | – | – | – | – | –
Cc1cc2cc3cc(C)c(N)cc3nc2cc1N | 1.87 | 1.31 | 1.27 | 11 | 0.894 | 2.65 | 2.2 | – | 2.3 | 1.6 | – | – | – | – | – | – | – | – | – | –
